The target in test [1] is pim-1 kinase (Homo sapiens, UniProt P11309). Briefly: Measurement of pim-1 kinase inhibitory activity (fluorescent substrate peptide, capillary electrophoresis). The format is biochemical. As to conditions: 0.1 μM of each compound, 30 μM ATP, 1.5 μM substrate peptide, room temperature 2 hours. The protocol:
Measurement of Pim-1 Kinase Inhibitory Activity
The result of the reaction was determined by quantifying the substrate and the phosphorylated reaction product separated by capillary electrophoresis based on difference in charges of the substances (EZ Reader II, Caliper Life Sciences, was used).

Test [2] has as its system Human acute myeloid leukemia MV4-11 cells. Briefly: Cell proliferation-suppressing activity, chromogenic method (MTT assay). The class given is cell-based. As to conditions: 72 h, compound 1 μM, MTT assay three days after addition, Table 3. The protocol:
(§1) Measurement of Cell Proliferation-Suppressing Activity (Chromogenic Method)
Human acute myeloid leukemia MV4-11 cells (10^4 cells) were inoculated on a 96-well microtiter plate, each compound was added at a final concentration of 1 μM 24 hours afterward, and MTT assay was performed three days after the addition of the compound to measure the cell proliferation-suppressing activity.

Test [3] shares this test system. Put plainly: Cell proliferation-suppressing activity, chromogenic method (Cell Counting Kit-8). The class given is cell-based. As to conditions: compound 1 μM, 48 hours, Cell Counting Kit-8, absorbance 450 nm, Table 7. Here is the method:
as §1
Human acute myeloid leukemia MV4-11 cells (2×10^4 cells) are inoculated on a 96-well microtiter plate. Each compound is added at a final concentration of 1 μM on the next day, and the cells are cultured for additional 48 hours. Absorbance is measured at 450 nm by using Cell Counting Kit-8 (Nacalai Tesque) to calculate the cell proliferation-suppressing activity.

Counter-ions that a name gives are not always drawn.

Sequence of pim-1 kinase (P11309 whole entry): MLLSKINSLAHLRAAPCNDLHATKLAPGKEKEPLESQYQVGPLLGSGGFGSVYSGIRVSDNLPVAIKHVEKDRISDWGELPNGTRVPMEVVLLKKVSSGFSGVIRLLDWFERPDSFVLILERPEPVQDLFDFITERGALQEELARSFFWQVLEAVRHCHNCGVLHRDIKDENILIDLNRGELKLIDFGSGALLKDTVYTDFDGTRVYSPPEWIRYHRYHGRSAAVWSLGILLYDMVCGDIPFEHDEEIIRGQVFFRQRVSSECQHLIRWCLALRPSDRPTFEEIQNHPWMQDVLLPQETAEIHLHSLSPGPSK

As for `CN(C)C1CCN(Cc2c(O)ccc3c2O/C(=C\c2c[nH]c4ccccc24)C3=O)C1` (stereo not drawn) [Compound A3, (Z)-2-[(1H-Indol-3-yl)methylene]-7-{[3-(dimethylamino)pyrrolidin-1-yl]methyl}-6-hydroxybenzofuran-3(2H)-one], testing at 0.1 µM in test [1] (Table 1) gave an inhibition of 47%. This compound returned an inhibition at 1 µM in test [2] of 41%.
As for `O=C1CN(Cc2c(O)ccc3c2O/C(=C\c2c[nH]c4ccccc24)C3=O)CCN1` [Compound A7, (Z)-4-({2-[(1H-Indol-3-yl)methylene]-6-hydroxy-3-oxo-2,3-dihydrobenzofuran-7-yl}methyl)piperazin-2-one], in test [1] (Table 1), the inhibition at 0.1 µM is 81%. This compound also displayed an inhibition at 1 µM in test [2] of 22%.
In the case of `O=C1/C(=C/c2c[nH]c3ccccc23)Oc2c1ccc(O)c2CN1CCNCC1` [Compound A11, (Z)-2-[(1H-Indol-3-yl)methylene]-6-hydroxy-7-(piperazin-1-ylmethyl)benzofuran-3(2H)-one], in test [1] (Table 1), at 0.1 µM the inhibition was 87%. This compound also gave an inhibition at 1 µM in test [2] of 82%.
For `O=C1/C(=C/c2c[nH]c3ccc([N+](=O)[O-])cc23)Oc2c1ccc(O)c2CN1CCNCC1` [Compound A17, (Z)-6-Hydroxy-2-[(5-nitro-1H-indol-3-yl)methylene]-7-(piperazin-1-ylmethyl)benzofuran-3(2H)-one dihydrochloride] the same measures were 82% and 73%.
In test [1] (Table 2), `COc1ccc2c(c1CCCCN1CCNCC1)O/C(=C\c1n[nH]c3ccccc13)C2=O` [Compound B51, (Z)-2-[(1H-Indazol-3-yl)methylene]-6-methoxy-7-[4-(piperazin-1-yl)butyl]benzofuran-3(2H)-one] registered an inhibition at 0.1 µM of 86%. 1 µM produced 94% inhibition in test [3].
With `COc1ccc2c(c1C1=CCNCC1)O/C(=C\c1n[nH]c3ccccc13)C2=O` [Compound B52, (Z)-2-[(1H-Indazol-3-yl)methylene]-6-methoxy-7-(1,2,3,6-tetrahydropyridin-4-yl)benzofuran-3(2H)-one], in test [1] (Table 2), at 0.1 µM the inhibition was 50%. In addition, the inhibition at 1 µM in test [3] is 98%.
Turning to `COc1ccc2c(c1C1CCNCC1)O/C(=C\c1n[nH]c3ccccc13)C2=O` [Compound B53, (Z)-2-[(1H-Indazol-3-yl)methylene]-6-methoxy-7-(piperidin-4-yl)benzofuran-3(2H)-one], 0.1 µM produced 36% inhibition in test [1] (Table 2). This compound displayed an inhibition at 1 µM in test [3] of 98%.
For `COc1ccc2c(c1CC1CCNCC1)O/C(=C\c1n[nH]c3ccccc13)C2=O` [Compound B54, (Z)-2-[(1H-Indazol-3-yl)methylene]-6-methoxy-7-(piperidin-4-ylmethyl)benzofuran-3(2H)-one] the same measures were 98% and 97%.
For `COc1ccc2c(c1C#CC1CCNCC1)O/C(=C\c1n[nH]c3ccccc13)C2=O` [Compound B55, (Z)-2-[(1H-Indazol-3-yl)methylene]-6-methoxy-7-(piperidin-4-ylethynyl)benzofuran-3(2H)-one] the same measures were 84% and 99%.
In the case of `COc1ccc2c(c1/C=C\C1CCNCC1)O/C(=C\c1n[nH]c3ccccc13)C2=O` [Compound B56, (Z)-2-[(1H-Indazol-3-yl)methylene]-6-methoxy-7-[(Z)-2-(piperidin-4-yl)vinyl]benzofuran-3(2H)-one], in test [1] (Table 2), testing at 0.1 µM gave an inhibition of 95%. The same compound gave an inhibition at 1 µM in test [3] of 99%.
For `COc1ccc2c(c1CCC1CCNCC1)O/C(=C\c1n[nH]c3ccccc13)C2=O` [Compound B57, (Z)-2-[(1H-Indazol-3-yl)methylene]-6-methoxy-7-[2-(piperidin-4-yl)ethyl]benzofuran-3(2H)-one] the same measures were 89% and 99%.
For `COc1ccc2c(c1C#CCC1CCNCC1)O/C(=C\c1n[nH]c3ccccc13)C2=O` [Compound B58, (Z)-2-[(1H-Indazol-3-yl)methylene]-6-methoxy-7-[3-(piperidin-4-yl)prop-1-ynyl]benzofuran-3(2H)-one] the same measures were 90% and 94%.
Consider `COc1ccc2c(c1/C=C\CC1CCNCC1)O/C(=C\c1n[nH]c3ccccc13)C2=O` [Compound B59, (Z)-2-[(1H-Indazol-3-yl)methylene]-6-methoxy-7-[(Z)-3-(piperidin-4-yl)prop-1-enyl]benzofuran-3(2H)-one], for which testing at 0.1 µM in test [1] (Table 2) gave an inhibition of 96%. 1 µM produced 55% inhibition in test [3].
Compound `COc1ccc2c(c1CCCC1CCNCC1)O/C(=C\c1n[nH]c3ccccc13)C2=O` [Compound B60, (Z)-2-[(1H-Indazol-3-yl)methylene]-6-methoxy-7-[3-(piperidin-4-yl)propyl]benzofuran-3(2H)-one] had an inhibition at 0.1 µM in test [1] (Table 2) of 95%. Further, the inhibition at 1 µM in test [3] came out at 98%.
Take `COc1ccc2c(c1C#CCCC1CCNCC1)O/C(=C\c1n[nH]c3ccccc13)C2=O` [Compound B61, (Z)-2-[(1H-Indazol-3-yl)methylene]-6-methoxy-7-[4-(piperidin-4-yl)but-1-ynyl]benzofuran-3(2H)-one]: in test [1] (Table 2), testing at 0.1 µM gave an inhibition of 70%. For the same compound, testing at 1 µM in test [3] gave an inhibition of 97%.
`COc1ccc2c(c1/C=C\CCC1CCNCC1)O/C(=C\c1n[nH]c3ccccc13)C2=O` [Compound B62, (Z)-2-[(1H-Indazol-3-yl)methylene]-6-methoxy-7-[(Z)-4-(piperidin-4-yl)but-1-enyl]benzofuran-3(2H)-one] had an inhibition at 0.1 µM in test [1] (Table 2) of 71%. The same compound had an inhibition at 1 µM in test [3] of 93%.
For `COc1ccc2c(c1CCCCC1CCNCC1)O/C(=C\c1n[nH]c3ccccc13)C2=O` [Compound B63, (Z)-2-[(1H-Indazol-3-yl)methylene]-6-methoxy-7-[4-(piperidin-4-yl)butyl]benzofuran-3(2H)-one] the same measures were 95% and 95%.
For `COc1ccc2c(c1/C=C/C1CCNCC1)O/C(=C\c1n[nH]c3ccccc13)C2=O` [Compound B64, (Z)-2-[(1H-Indazol-3-yl)methylene]-6-methoxy-7-[(E)-2-(piperidin-4-yl)vinyl]benzofuran-3(2H)-one] the same measures were 81% and 93%.
For `COc1ccc2c(c1/C=C/CC1CCNCC1)O/C(=C\c1n[nH]c3ccccc13)C2=O` [Compound B65, (Z)-2-[(1H-Indazol-3-yl)methylene]-6-methoxy-7-[(E)-3-(piperidin-4-yl)prop-1-enyl]benzofuran-3(2H)-one] the same measures were 73% and 97%.
For the compound `COc1c(F)cc2c(c1CCC1CCNCC1)O/C(=C\c1n[nH]c3ccccc13)C2=O` [Compound B66, (Z)-2-[(1H-Indazol-3-yl)methylene]-5-fluoro-6-methoxy-7-[2-(piperidin-4-yl)ethyl]benzofuran-3(2H)-one], the inhibition at 0.1 µM in test [1] (Table 2) turned out to be 89%. Further, the inhibition at 1 µM in test [3] was 88%.
With `COc1ccc2c(c1C#CC(C)(C)N1CCNCC1)O/C(=C\c1n[nH]c3ccccc13)C2=O` [Compound B67, (Z)-2-[(1H-Indazol-3-yl)methylene]-6-methoxy-7-[3-methyl-3-(piperazin-1-yl)but-1-ynyl]benzofuran-3(2H)-one], in test [1] (Table 2), at 0.1 µM the inhibition was 46%. Moreover, testing at 1 µM in test [3] gave an inhibition of 96%.
Regarding `O=C1/C(=C/c2n[nH]c3ncccc23)Oc2c1ccc(O)c2CN1CCNCC1` [Compound B68, (Z)-2-[(1H-Pyrazolo[3,4-b]pyridin-3-yl)methylene]-6-hydroxy-7-(piperazin-1-ylmethyl)benzofuran-3(2H)-one], testing at 0.1 µM in test [1] (Table 2) gave an inhibition of 93%. In test [3], this compound showed an inhibition at 1 µM of 52%.
For `COc1ccc2c(c1CN1CCNCC1)O/C(=C\c1n[nH]c3ncccc13)C2=O` [Compound B69, (Z)-2-[(1H-Pyrazolo[3,4-b]pyridin-3-yl)methylene]-6-methoxy-7-(piperazin-1-ylmethyl)benzofuran-3(2H)-one] the same measures were 95% and 100%.
Consider `O=C1/C(=C/c2n[nH]c3ncccc23)Oc2c(CN3CCNCC3)cccc21` [Compound B70, (Z)-2-[(1H-Pyrazolo[3,4-b]pyridin-3-yl)methylene]-7-(piperazin-1-ylmethyl)benzofuran-3(2H)-one], for which 0.1 µM produced 94% inhibition in test [1] (Table 2). In addition, at 1 µM the inhibition in test [3] was 77%.
`COc1ccc2c(c1CC1CCNCC1)O/C(=C\c1n[nH]c3ncccc13)C2=O` [Compound B71, (Z)-2-[(1H-Pyrazolo[3,4-b]pyridin-3-yl)methylene]-6-methoxy-7-(piperidin-4-ylmethyl)benzofuran-3(2H)-one] had an inhibition at 0.1 µM in test [1] (Table 2) of 95%. The compound also returned an inhibition at 1 µM in test [3] of 100%.
Compound `COc1ccc2c(c1CCC1CCNCC1)O/C(=C\c1n[nH]c3ncccc13)C2=O` [Compound B72, (Z)-2-[(1H-Pyrazolo[3,4-b]pyridin-3-yl)methylene]-6-methoxy-7-[2-(piperidin-4-yl)ethyl]benzofuran-3(2H)-one] registered an inhibition at 0.1 µM in test [1] (Table 2) of 97%. The compound further had an inhibition at 1 µM in test [3] of 93%.
For `COc1ccc2c(c1Cc1c(C)n[nH]c1C)O/C(=C\c1n[nH]c3ccccc13)C2=O` [Compound B73, (Z)-2-[(1H-Indazol-3-yl)methylene]-7-[(3,5-dimethyl-1H-pyrazol-4-yl)methyl]-6-methoxybenzofuran-3(2H)-one] the same measures were 49% and 81%.

The values are drawn from US9156827B2, “Anticancer agent” (THE UNIVERSITY OF TOKYO, priority 2010, dated 2015).
